# Where a SMILES comes first, the peptide text is derived from it. The star is where a group is joined. Cbz = O=C(OCc1ccccc1)*; CH2F = FC*
# Columns and labels:
# [1] = target: T1, caspase-3 (Rattus norvegicus, UniProt P55213); test: Caspase-3 activity assay with fluorogenic substrate Ac-DEVD-AFC in treated N27 cells; format: cell-based
# T1 construct: N27 cells were exposed to either MPP^+ or 6-OHDA in the absence or presence of z-DIPD-fmk; endogenous in cells; host or cells: N27 rat mesencephalic dopaminergic neuronal cells
# T1 sequence (P55213 29-175 limits assumed): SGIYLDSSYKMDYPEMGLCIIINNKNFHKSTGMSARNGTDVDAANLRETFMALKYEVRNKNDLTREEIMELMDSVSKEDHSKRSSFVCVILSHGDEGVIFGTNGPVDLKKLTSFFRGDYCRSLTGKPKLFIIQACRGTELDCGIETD
# T1 sequence (P55213 176-277 limits assumed): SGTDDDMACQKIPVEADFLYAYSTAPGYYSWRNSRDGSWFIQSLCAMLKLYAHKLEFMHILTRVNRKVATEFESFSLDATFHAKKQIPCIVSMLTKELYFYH
# Source text: Chemicals. Protease cocktail, ATP, protein-A-sepharose, protein-G-sepharose and anti-â-actin antibody were obtained from Sigma-Aldrich (St. Louis, Mo.); mouse tyrosine hydroxylase antibody was purchased from Chemicon (Temecula, Calif.); the rabbit polyclonal antibody for tyrosine hydroxylase was obtained from Calbiochem Bioscience, Inc. (King of Prussia, Pa.); rabbit PKCδ antibody was purchased from Santa Cruz Biotechnology, Inc. (Santa Cruz, Calif.); anti-rabbit and anti-mouse secondary antibodies and the ECL chemiluminescence kit were purchased from Amersham Pharmacia Biotech. (Piscataway, N.J.). Alexa 488 conjugated antirabbit/mouse, Cy3 conjugated anti-rabbit/mouse antibody and Hoechst 33342 were purchased from Molecular Probes, Inc. (Eugene, Oreg.). [ã-32P]ATP was purchased from Perkin Elmer Life Science Products (Boston, Mass.). The Bradford protein assay kit was purchased from Bio-Rad Laboratories (Hercules, Calif.). RPMI, fetal bovine serum, -glutamine, penicillin, and streptomycin were purchased from Invitrogen (Gaithersburg, Md.). Quantity One 4.2.0 software was purchased from Bio-Rad. Design and synthesis of z-DIPD-fmk (SEQ ID NO:5). To develop a cell permeable peptide inhibitor to specifically block PKCδ cleavage, we designed the tetrapeptide Asp-Ile-Pro-Asp (DIPD) (SEQ ID NO:5) corresponding to position 324-327 in rat PKCδ cDNA representing the caspase-3 cleavage site. Since this peptide is directed against the caspase-3 cleavage site of PKCδ, it should prevent the proteolytic cleavage and activation of PKCδ mediated by caspase-3. The custom synthesis of the tetrapeptide Z-Asp(OMe)-Ile-Pro-Asp(OMe)-FMK (SEQ ID NO:5) was performed at MP Biomedicals (Irvine, Calif.), a quality company that specializes in developing cell permeable peptide inhibitors directed against apoptosis cell signaling molecules. Briefly, the synthesis was performed with the reaction of Boc-D(OMe)-OH with MBFM (Magnesium benzyl fluoromalonate) to produce Beta-Keto fluoroester, followed by hydrogenation with Pd/c to produce Boc-D(OMe)FK, which was converted into Tfa salt using trifluoroacetic acid. Coupling of Tfa salt with Z-D(OMe)—I—P—OH in DMF with HOBT, HBTU DIEA and workup produced a crude product which was purified by column chromatography over silica gel. Elution with EtOAC:MeOH 95:5 gave pure fractions which were mixed and dried. Crystallization with EtOAC/Hexane, filtration and drying produced the pure product. Animals. Time-pregnant C57/bL mice were housed under standard conditions: constant temperature (22±1° C.), humidity (relative, 30%) and a 12-h light/dark cycle with free access to food and water. The animals and protocol procedures were approved and supervised by the Committee on Animal Care (COAC) at Iowa State University. Cell culture. Rat mesencephalic dopaminergic neuronal (N27) cells were cultured as described earlier (Anantharam et al., 2002). Briefly, cells were grown in RPMI 1640 medium containing 10% fetal bovine serum, 2 mM L-glutamine, 50 units of penicillin, and 50 μg/ml streptomycin. Cells were maintained in a humidified atmosphere of 5% CO2 at 37° C. Primary mesencephalic neuronal cultures were prepared from the ventral mesencephalon of gestational 18-day-old mice embryos as described previously (Yang et al., 2004). Mesencephalic tissues were dissected and maintained in ice-cold Ca2+-free HBSS and then dissociated in HBSS solution containing trypsin-EDTA (0.25%) for 20 min at 37° C. […]
# [2] = tested on: N27 mesencephalic neuronal cells; test: MTT cytotoxicity assay, MPP+- and 6-OHDA-induced cytotoxicity; conditions: N27 cells, 100 μM 6-OHDA 24 hr, inhibitor 50 μM
# Source text: (§1) Chemicals. Protease cocktail, ATP, protein-A-sepharose, protein-G-sepharose and anti-â-actin antibody were obtained from Sigma-Aldrich (St. Louis, Mo.); mouse tyrosine hydroxylase antibody was purchased from Chemicon (Temecula, Calif.); the rabbit polyclonal antibody for tyrosine hydroxylase was obtained from Calbiochem Bioscience, Inc. (King of Prussia, Pa.); rabbit PKCδ antibody was purchased from Santa Cruz Biotechnology, Inc. (Santa Cruz, Calif.); anti-rabbit and anti-mouse secondary antibodies and the ECL chemiluminescence kit were purchased from Amersham Pharmacia Biotech. (Piscataway, N.J.). Alexa 488 conjugated antirabbit/mouse, Cy3 conjugated anti-rabbit/mouse antibody and Hoechst 33342 were purchased from Molecular Probes, Inc. (Eugene, Oreg.). [ã-32P]ATP was purchased from Perkin Elmer Life Science Products (Boston, Mass.). The Bradford protein assay kit was purchased from Bio-Rad Laboratories (Hercules, Calif.). RPMI, fetal bovine serum, -glutamine, penicillin, and streptomycin were purchased from Invitrogen (Gaithersburg, Md.). Quantity One 4.2.0 software was purchased from Bio-Rad. Design and synthesis of z-DIPD-fmk (SEQ ID NO:5). To develop a cell permeable peptide inhibitor to specifically block PKCδ cleavage, we designed the tetrapeptide Asp-Ile-Pro-Asp (DIPD) (SEQ ID NO:5) corresponding to position 324-327 in rat PKCδ cDNA representing the caspase-3 cleavage site. Since this peptide is directed against the caspase-3 cleavage site of PKCδ, it should prevent the proteolytic cleavage and activation of PKCδ mediated by caspase-3. The custom synthesis of the tetrapeptide Z-Asp(OMe)-Ile-Pro-Asp(OMe)-FMK (SEQ ID NO:5) was performed at MP Biomedicals (Irvine, Calif.), a quality company that specializes in developing cell permeable peptide inhibitors directed against apoptosis cell signaling molecules. […]
# [3] = tested on: primary mesencephalic dopaminergic neuronal cells; test: TH immunostaining, TH+ cell count and neuronal process length in primary mesencephalic cultures; format: cell-based, mouse
# Source text: Chemicals. Protease cocktail, ATP, protein-A-sepharose, protein-G-sepharose and anti-â-actin antibody were obtained from Sigma-Aldrich (St. Louis, Mo.); mouse tyrosine hydroxylase antibody was purchased from Chemicon (Temecula, Calif.); the rabbit polyclonal antibody for tyrosine hydroxylase was obtained from Calbiochem Bioscience, Inc. (King of Prussia, Pa.); rabbit PKCδ antibody was purchased from Santa Cruz Biotechnology, Inc. (Santa Cruz, Calif.); anti-rabbit and anti-mouse secondary antibodies and the ECL chemiluminescence kit were purchased from Amersham Pharmacia Biotech. (Piscataway, N.J.). Alexa 488 conjugated antirabbit/mouse, Cy3 conjugated anti-rabbit/mouse antibody and Hoechst 33342 were purchased from Molecular Probes, Inc. (Eugene, Oreg.). [ã-32P]ATP was purchased from Perkin Elmer Life Science Products (Boston, Mass.). The Bradford protein assay kit was purchased from Bio-Rad Laboratories (Hercules, Calif.). RPMI, fetal bovine serum, -glutamine, penicillin, and streptomycin were purchased from Invitrogen (Gaithersburg, Md.). Quantity One 4.2.0 software was purchased from Bio-Rad. Design and synthesis of z-DIPD-fmk (SEQ ID NO:5). To develop a cell permeable peptide inhibitor to specifically block PKCδ cleavage, we designed the tetrapeptide Asp-Ile-Pro-Asp (DIPD) (SEQ ID NO:5) corresponding to position 324-327 in rat PKCδ cDNA representing the caspase-3 cleavage site. Since this peptide is directed against the caspase-3 cleavage site of PKCδ, it should prevent the proteolytic cleavage and activation of PKCδ mediated by caspase-3. The custom synthesis of the tetrapeptide Z-Asp(OMe)-Ile-Pro-Asp(OMe)-FMK (SEQ ID NO:5) was performed at MP Biomedicals (Irvine, Calif.), a quality company that specializes in developing cell permeable peptide inhibitors directed against apoptosis cell signaling molecules. Briefly, the synthesis was performed with the reaction of Boc-D(OMe)-OH with MBFM (Magnesium benzyl fluoromalonate) to produce Beta-Keto fluoroester, followed by hydrogenation with Pd/c to produce Boc-D(OMe)FK, which was converted into Tfa salt using trifluoroacetic acid. Coupling of Tfa salt with Z-D(OMe)—I—P—OH in DMF with HOBT, HBTU DIEA and workup produced a crude product which was purified by column chromatography over silica gel. Elution with EtOAC:MeOH 95:5 gave pure fractions which were mixed and dried. Crystallization with EtOAC/Hexane, filtration and drying produced the pure product. Animals. Time-pregnant C57/bL mice were housed under standard conditions: constant temperature (22±1° C.), humidity (relative, 30%) and a 12-h light/dark cycle with free access to food and water. The animals and protocol procedures were approved and supervised by the Committee on Animal Care (COAC) at Iowa State University. Cell culture. Rat mesencephalic dopaminergic neuronal (N27) cells were cultured as described earlier (Anantharam et al., 2002). Briefly, cells were grown in RPMI 1640 medium containing 10% fetal bovine serum, 2 mM L-glutamine, 50 units of penicillin, and 50 μg/ml streptomycin. Cells were maintained in a humidified atmosphere of 5% CO2 at 37° C. Primary mesencephalic neuronal cultures were prepared from the ventral mesencephalon of gestational 18-day-old mice embryos as described previously (Yang et al., 2004). Mesencephalic tissues were dissected and maintained in ice-cold Ca2+-free HBSS and then dissociated in HBSS solution containing trypsin-EDTA (0.25%) for 20 min at 37° C. The dissociated cells were then plated at equal density (0.5×10^6 cells) in 30-mm-diameter tissue culture wells pre-coated with poly-lysine (1 mg/ml). Cultures were maintained in a chemically defined, serum-free medium consisting of neurobasal medium fortified with B-27 supplements, L-glutamine (500 μM), penicillin (100 IU/ml), and streptomycin (100 μg/ml) (Life Technologies). The cells were maintained in a humidified CO2 incubator (5% CO2, 37° C.) for 24 hr and then treated with cytosine arabinoside (10 μM) for 24 hr to inhibit glial cell proliferation. […]
# [4] = tested on: PKCδ; test: Western blot of PKCδ proteolytic cleavage in N27 cells; format: cell-based, rat
# Source text: as §1
# [5] = 10 μM MPP+ 24 hr, inhibitor 10 and 50 μM
smiles,measurement,setting,value
"CC[C@H](C)[C@H](NC(=O)[C@H](CC(=O)OC)NC(=O)OCc1ccccc1)C(=O)N1CCC[C@H]1C(=O)N[C@@H](CC(=O)OC)C(=O)CF [z-DIPD-fmk, Z-Asp(OMe)-Ile-Pro-Asp(OMe)-FMK] (Cbz-D(OMe)IPD(OMe)-CH2F)",effect on 6-OHDA-induced caspase-3 activation,"[1]; 100 μM 6-OHDA 24 hr, inhibitor 50 μM",completely blocked
same,effect on MPP+-induced caspase-3 activation,"[1]; 300 μM MPP+ 36 hr, inhibitor 50 μM",completely blocked
same,effect on MPP+- and 6-OHDA-induced caspase-3 activation,"[1]; co-treatment, concentration not given",dose-dependently attenuated
same,protection against 6-OHDA-induced cell death (MTT),[2],significantly protected
same,"TH+ cell counts, protection against MPP+ neurotoxicity",[3]; [5],nearly complete protection
same,average lengths of TH+ neuronal processes versus MPP+ only,[3]; [5],significantly longer
same,"TH+ cell counts, protection against 6-OHDA neurotoxicity","[3]; 30 μM 6-OHDA 24 hr, inhibitor 10 and 50 μM",nearly complete protection
same,rescue of tyrosine hydroxylase positive neurons from MPP+- and 6-OHDA-induced toxicity,[3]; mouse primary mesencephalic cultures,completely rescued
same,effect on 6-OHDA-induced degeneration of TH+ neurons and their processes,"[3]; primary nigral cultures, 30 μM 6-OHDA 24 hr, inhibitor 10 and 50 μM",significantly blocked
same,effect on MPP+-induced degeneration of TH+ neurons and their processes,"[3]; primary nigral dopaminergic neurons, 10 μM MPP+ 24 hr, inhibitor 10 and 50 μM",significantly blocked
same,effect on 6-OHDA-induced proteolytic cleavage of PKCδ,"[4]; N27 cells, 100 μM 6-OHDA 24 hr, inhibitor 50 μM",significantly attenuated
same,effect on MPP+-induced proteolytic cleavage of PKCδ,"[4]; N27 cells, 300 μM MPP+ 36 hr, inhibitor 50 μM",almost completely attenuated
same,effect on PKCδ cleavage and proteolytic activation in PD models,[4]; concentration not given,effectively blocked

# Source: patent publication US7632819B1, “Methods and compositions for inhibiting PKC delta cleavage for treatment and prevention of neurodegeneration and apoptosis” (Iowa State University Research Foundation, Inc., priority 2004, dated 2009)
